One data set deals with E. coli ATCC 25922. Briefly: Broth microdilution testing (CLSI). The class given is cell-based, Escherichia coli. Conditions: broth microdilution, 16–24h at 37 °C, read-out: MIC E. coli ATCC 25922. The protocol:
(§1) Broth microdilution testing was performed according to CLSI (Clinical Laboratory Standards Institute) guidelines. MIC (minimal inhibitory concentration) value was defined as the last tested concentration of compound at which there is no visible growth of bacteria. […] Clinical and Laboratory Standards Institute (CLSI) guidelines.

The next data set relates to S. aureus ATCC 29213. Kind of data set: Broth microdilution testing (CLSI). The class given is cell-based, Staphylococcus aureus. The following applies: 16–24h at 37 °C, read-out: MIC S. aureus ATCC 29213. On the procedure: as §1
(In broth dilution the organism is exposed to a series of concentrations in liquid medium.)

The test system of another data set is S. cerevisiae ATCC 7752. Briefly: Broth microdilution testing (CLSI). The class given is cell-based, Saccharomyces cerevisiae. Conditions: broth microdilution, 16–24h at 37 °C, read-out: MIC S. cerevisiae ATCC 7752. The protocol: as §1
Where [1] appears, read: Staphylococcus aureus, ATCC29213, broth microdilution.
The mark [2] stands for this setting: Saccharomyces cerevisiae, ATCC7752.

≈ marks a conversion by molar mass, not a printed value. Counter-ions that a name gives are not always drawn. Like-named read-outs stand apart in the source and are kept apart here. A value given as a limit tells only on which side of the number the result lay.

Usually melting point stands for the temperature of the solid-liquid transition. For `CC(C)NC(=N)c1ccc2nc(-c3ccc(-c4ccc([N+](=O)[O-])cc4)o3)sc2c1` (as salt: hydrochloride) [Compound 5, 2-[5-(4-Nitrophenyl)furan-2-yl]-6-N-isopropilamidinobenzothiazole hydrochloride], the melting point lay within 201 to 206 °C.
For orientation: MIC means the lowest concentration that inhibits growth of the organism. For `CC(C)(O/N=C(\C(=O)N[C@@H]1C(=O)N2C(C(=O)[O-])=C(C[n+]3ccccc3)CS[C@H]12)c1csc(N)n1)C(=O)O` [Ceftazidime, reference compound], the MIC is below 0.125 µM in the data set with E. coli ATCC 25922 (Escherichia coli, ATCC25922); 16 µM (≈ 8.75 µg/mL) in the data set on S. aureus ATCC 29213 (setting [1]); above 64 µM in the data set with S. cerevisiae ATCC 7752 (setting [2]).
The compound `CC(C)NC(=N)c1ccc2nc(-c3ccc(-c4ccc(Cl)cc4)o3)sc2c1` (as salt: hydrochloride) [Compound 8, 2-[5-(4-Chlorophenyl)furan-2-yl]-6-N-isopropilamidinobenzothiazole hydrochloride] registered a melting point of 204 to 208 °C.
The same measure, in the same setting: under `CC(C)NC(=N)c1ccc2[nH]c(-c3ccc(-c4ccc(Cl)cc4)o3)nc2c1` (as salt: hydrochloride) [Compound 14, 2-[5-(4-Chlorophenyl)furan-2-yl]-5(6)-isopropilamidinobenzimidazole hydrochloride] stands 242 to 246 °C.
Take `CC1(C)S[C@@H]2[C@H](NC(=O)[C@H](N)c3ccccc3)C(=O)N2[C@H]1C(=O)O` [Ampicillin, reference compound]: the MIC with E. coli ATCC 25922 (Escherichia coli, ATCC25922) was 4 µM (≈ 1.4 µg/mL); in the data set on S. aureus ATCC 29213 (setting [1]), 2 µM (≈ 0.699 µg/mL); with S. cerevisiae ATCC 7752 (setting [2]) it was above 64 µM.
Consider Gentamycin [reference compound], for which the MIC with E. coli ATCC 25922 is on record as 0.5 µM; in the data set with S. aureus ATCC 29213 (broth microdilution) it was 0.25 µM; in the data set on S. cerevisiae ATCC 7752, above 64 µM.
`O=[N+]([O-])c1ccc(-c2ccc(-c3nc4cc(C5=NCCN5)ccc4[nH]3)o2)cc1` (as salt: hydrochloride) [Compound 12, 5(6)-(4,5-Dihydro-1H-imidazol-2-yl)-2-[5-(4-nitrophenyl)furan-2-yl]benzimidazole hydrochloride]: the melting point is above 270 °C.
Turning to `C[C@@H](c1ncncc1F)[C@](O)(Cn1cncn1)c1ccc(F)cc1F` [Voriconazole, reference compound], the MIC with E. coli ATCC 25922 (Escherichia coli, ATCC25922) is above 64 µM; in the data set with S. aureus ATCC 29213 (setting [1]) it was above 64 µM; in the data set on S. cerevisiae ATCC 7752 (setting [2]), below 0.125 µM.
The compound `CC(C)NC(=N)c1ccc2[nH]c(-c3ccc(-c4ccc([N+](=O)[O-])cc4)o3)nc2c1` (as salt: hydrochloride) [Compound 11, 2-[5-(4-Nitrophenyl)furan-2-yl]-5(6)-N-isopropilamidinobenzimidazole hydrochloride] returned a melting point above 270 °C.

The values are drawn from publication PMC8401404 (Molecules, 2021).
